{"source": "paper PMC11589570", "about": "“Critical assessment of LC3/GABARAP ligands used for degrader development and ligandability of LC3/GABARAP binding pockets” (Nature Communications, 2024)", "system": "RPE1 cells", "experiment": "Cell growth assay (IncuCyte confluence over 72 h)", "type": "cell-based", "in_short": "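Phase confluence (% area covered by cells) imaged every 2 h for 72 h after compound addition; cells in DMEM/10% FBS, seeded 24 h before treatment. Controls were 0.1% DMSO, 250 nM Torin1 and 200 ng/mL Bafilomycin (final). Each point averages three wells.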", "note": "Several values for one entry are separate records, joined by “and”; a condition that tells them apart may be missing. Equal entries are not always repeated.", "data": [{"smiles": "O=C1Nc2ccc(I)cc2C1=Cc1cc(Br)c(O)c(Br)c1", "note": "[compound 4]", "values": [{"measurement": "RPE1 cell growth", "setting": "100 nM, 0 h, listed as 10O5", "result": "16 and 14"}, {"measurement": "RPE1 cell growth", "setting": "100 nM, 2 h, listed as 10O5", "result": "20 and 13 and 18"}, {"measurement": "RPE1 cell growth", "setting": "100 nM, 4 h, listed as 10O5", "result": "23 and 14 and 19"}, {"measurement": "RPE1 cell growth", "setting": "100 nM, 6 h, listed as 10O5", "result": "26 and 14 and 18"}, {"measurement": "RPE1 cell growth", "setting": "100 nM, 8 h, listed as 10O5", "result": "27 and 16 and 19"}, {"measurement": "RPE1 cell growth", "setting": "100 nM, 10 h, listed as 10O5", "result": "28 and 17 and 21"}, {"measurement": "RPE1 cell growth", "setting": "500 nM, 0 h, listed as 10O5", "result": "20 and 18 and 16"}, {"measurement": "RPE1 cell growth", "setting": "500 nM, 2 h, listed as 10O5", "result": "24 and 18"}, {"measurement": "RPE1 cell growth", "setting": "500 nM, 4 h, listed as 10O5", "result": "27 and 19"}, {"measurement": "RPE1 cell growth", "setting": "500 nM, 6 h, listed as 10O5", "result": "29 and 20 and 19"}, {"measurement": "RPE1 cell growth", "setting": "500 nM, 8 h, listed as 10O5", "result": "32 and 21 and 20"}, {"measurement": "RPE1 cell growth", "setting": "500 nM, 10 h, listed as 10O5", "result": "35 and 22"}, {"measurement": "RPE1 cell growth", "setting": "1 uM, 0 h, listed as 10O5", "result": "15 and 13 and 19"}, {"measurement": "RPE1 cell growth", "setting": "1 uM, 2 h, listed as 10O5", "result": "18 and 17"}, {"measurement": "RPE1 cell growth", "setting": "1 uM, 4 h, listed as 10O5", "result": "20 and 18"}, {"measurement": "RPE1 cell growth", "setting": "1 uM, 6 h, listed as 10O5", "result": "21 and 24 and 20"}, {"measurement": "RPE1 cell growth", "setting": "1 uM, 8 h, listed as 10O5", "result": "21 and 25 and 22"}, {"measurement": "RPE1 cell growth", "setting": "1 uM, 10 h, listed as 10O5", "result": "23 and 26 and 22"}, {"measurement": "RPE1 cell growth", "setting": "1 uM, 12 h, listed as 10O5", "result": 25}, {"measurement": "RPE1 cell growth", "setting": "3 uM, 0 h, listed as 10O5", "result": "13 and 19 and 16"}, {"measurement": "RPE1 cell growth", "setting": "3 uM, 2 h, listed as 10O5", "result": "17 and 19"}, {"measurement": "RPE1 cell growth", "setting": "3 uM, 4 h, listed as 10O5", "result": "20 and 18"}, {"measurement": "RPE1 cell growth", "setting": "3 uM, 6 h, listed as 10O5", "result": "23 and 21 and 19"}, {"measurement": "RPE1 cell growth", "setting": "3 uM, 8 h, listed as 10O5", "result": "26 and 20 and 19"}, {"measurement": "RPE1 cell growth", "setting": "3 uM, 10 h, listed as 10O5", "result": "27 and 24 and 21"}, {"measurement": "RPE1 cell growth", "setting": "3 uM, 12 h, listed as 10O5", "result": "30 and 23"}, {"measurement": "RPE1 cell growth", "setting": "5 uM, 0 h, listed as 10O5", "result": "16 and 15 and 17"}, {"measurement": "RPE1 cell growth", "setting": "5 uM, 2 h, listed as 10O5", "result": "20 and 16 and 19"}, {"measurement": "RPE1 cell growth", "setting": "5 uM, 4 h, listed as 10O5", "result": "21 and 17"}, {"measurement": "RPE1 cell growth", "setting": "5 uM, 6 h, listed as 10O5", "result": "24 and 17 and 20"}, {"measurement": "RPE1 cell growth", "setting": "5 uM, 8 h, listed as 10O5", "result": "29 and 19 and 21"}, {"measurement": "RPE1 cell growth", "setting": "5 uM, 10 h, listed as 10O5", "result": "28 and 19 and 23"}, {"measurement": "RPE1 cell growth", "setting": "10 uM, 0 h, listed as 10O5", "result": "16 and 21 and 17"}, {"measurement": "RPE1 cell growth", "setting": "10 uM, 2 h, listed as 10O5", "result": "22 and 20"}, {"measurement": "RPE1 cell growth", "setting": "10 uM, 4 h, listed as 10O5", "result": "25 and 21 and 22"}, {"measurement": "RPE1 cell growth", "setting": "10 uM, 6 h, listed as 10O5", "result": "29 and 22"}, {"measurement": "RPE1 cell growth", "setting": "10 uM, 8 h, listed as 10O5", "result": "30 and 26 and 23"}, {"measurement": "RPE1 cell growth", "setting": "10 uM, 10 h, listed as 10O5", "result": "31 and 28 and 24"}]}, {"smiles": "CO[C@@H]1[C@@H](OC(N)=O)[C@@H](O)[C@H](Oc2ccc3c(O)c(NC(=O)c4ccc(O)c(CC=C(C)C)c4)c(=O)oc3c2C)OC1(C)C", "note": "[compound 12, Novobiocin]", "values": [{"measurement": "RPE1 cell growth", "setting": "100 nM, 0 h", "result": "25 and 15"}, {"measurement": "RPE1 cell growth", "setting": "100 nM, 2 h", "result": "26 and 15 and 17"}, {"measurement": "RPE1 cell growth", "setting": "100 nM, 4 h", "result": "29 and 17 and 18"}, {"measurement": "RPE1 cell growth", "setting": "100 nM, 6 h", "result": "30 and 18"}, {"measurement": "RPE1 cell growth", "setting": "100 nM, 8 h", "result": "33 and 18 and 20"}, {"measurement": "RPE1 cell growth", "setting": "100 nM, 10 h", "result": "36 and 19 and 21"}, {"measurement": "RPE1 cell growth", "setting": "500 nM, 0 h", "result": "27 and 16 and 18"}, {"measurement": "RPE1 cell growth", "setting": "500 nM, 2 h", "result": "32 and 16 and 20"}, {"measurement": "RPE1 cell growth", "setting": "500 nM, 4 h", "result": "32 and 18 and 22"}, {"measurement": "RPE1 cell growth", "setting": "500 nM, 6 h", "result": "35 and 18 and 22"}, {"measurement": "RPE1 cell growth", "setting": "500 nM, 8 h", "result": "38 and 20 and 23"}, {"measurement": "RPE1 cell growth", "setting": "500 nM, 10 h", "result": "39 and 21"}, {"measurement": "RPE1 cell growth", "setting": "1 uM, 0 h", "result": "18 and 23 and 20"}, {"measurement": "RPE1 cell growth", "setting": "1 uM, 2 h", "result": "20 and 26 and 21"}, {"measurement": "RPE1 cell growth", "setting": "1 uM, 4 h", "result": "22 and 28 and 21"}, {"measurement": "RPE1 cell growth", "setting": "1 uM, 6 h", "result": "23 and 32"}, {"measurement": "RPE1 cell growth", "setting": "1 uM, 8 h", "result": "26 and 35 and 25"}, {"measurement": "RPE1 cell growth", "setting": "1 uM, 10 h", "result": 27}, {"measurement": "RPE1 cell growth", "setting": "3 uM, 0 h", "result": "27 and 19 and 22"}, {"measurement": "RPE1 cell growth", "setting": "3 uM, 2 h", "result": "31 and 19 and 24"}, {"measurement": "RPE1 cell growth", "setting": "3 uM, 4 h", "result": "33 and 20 and 27"}, {"measurement": "RPE1 cell growth", "setting": "3 uM, 6 h", "result": "37 and 22 and 28"}, {"measurement": "RPE1 cell growth", "setting": "3 uM, 8 h", "result": "41 and 24 and 30"}, {"measurement": "RPE1 cell growth", "setting": "3 uM, 10 h", "result": "40 and 26 and 31"}, {"measurement": "RPE1 cell growth", "setting": "5 uM, 0 h", "result": "24 and 20"}, {"measurement": "RPE1 cell growth", "setting": "5 uM, 2 h", "result": "28 and 22 and 24"}, {"measurement": "RPE1 cell growth", "setting": "5 uM, 4 h", "result": "31 and 22 and 26"}, {"measurement": "RPE1 cell growth", "setting": "5 uM, 6 h", "result": "34 and 23 and 27"}, {"measurement": "RPE1 cell growth", "setting": "5 uM, 8 h", "result": "36 and 26 and 28"}, {"measurement": "RPE1 cell growth", "setting": "5 uM, 10 h", "result": "35 and 26 and 30"}, {"measurement": "RPE1 cell growth", "setting": "10 uM, 0 h", "result": "22 and 24 and 16"}, {"measurement": "RPE1 cell growth", "setting": "10 uM, 2 h", "result": "24 and 19"}, {"measurement": "RPE1 cell growth", "setting": "10 uM, 4 h", "result": "26 and 24 and 20"}, {"measurement": "RPE1 cell growth", "setting": "10 uM, 6 h", "result": "29 and 25 and 23"}, {"measurement": "RPE1 cell growth", "setting": "10 uM, 8 h", "result": "32 and 28 and 23"}, {"measurement": "RPE1 cell growth", "setting": "10 uM, 10 h", "result": "32 and 28 and 26"}]}]}
